The values below come from patent US9873883B2, “Glyphosate resistant plants and associated methods” (Dow AgroSciences LLC, priority 2012, dated 2018).

pIC50: −log10 of the molar value.

Experiment [1] concerns the target T1, Glycine max (soybean) EPSP synthase DGT-1 variant DGT-1 v6 (G→A) (Glycine max, UniProt I1J7U9, G182A).
T1 sequence (I1J7U9 with tags, fused parts or gaps G182A): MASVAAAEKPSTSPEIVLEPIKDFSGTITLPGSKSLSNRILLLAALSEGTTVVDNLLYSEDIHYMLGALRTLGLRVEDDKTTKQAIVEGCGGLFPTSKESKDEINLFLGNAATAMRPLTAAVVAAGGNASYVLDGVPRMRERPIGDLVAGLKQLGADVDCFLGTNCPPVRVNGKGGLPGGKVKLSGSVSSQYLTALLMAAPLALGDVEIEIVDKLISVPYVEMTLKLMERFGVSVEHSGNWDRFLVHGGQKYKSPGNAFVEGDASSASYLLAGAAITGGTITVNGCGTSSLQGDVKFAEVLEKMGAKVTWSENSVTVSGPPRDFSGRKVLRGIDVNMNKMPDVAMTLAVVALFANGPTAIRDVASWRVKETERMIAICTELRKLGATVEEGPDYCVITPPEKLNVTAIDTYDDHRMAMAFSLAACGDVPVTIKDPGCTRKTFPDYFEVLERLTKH
The experiment is described as follows: In vitro kinetic assay (inorganic phosphate production, malachite green). In kind it is biochemical. The conditions noted are these: for pIC50: IC50 (glyphosate). From the text: (§1) The following Class I enzymes: DGT-1 from Glycine max, DGT-3 from Brassica napus (GENBANK ACC NO: P17688), and DGT-7 from Triticum aestivum (GENBANK ACC NO: EU977181) were used as a comparison. The Class I EPSP synthase enzymes and mutant variants thereof were synthesized and evaluated. A mutation introduced into the plant EPSP synthase enzymes consisted of the Glycine to Alanine mutation made within the EPSP synthase enzyme at a similar location as that of the G96A mutation from the E. coli version of the enzyme. In addition, Threonine to Isoleucine and Proline to Serine mutations were introduced within these Class I EPSP synthase enzymes at analogous positions as that of amino acid 97 (T to I) and amino acid 101 (P to S) in the EPSP synthase of E. coli as described in Funke et al., (2009).
(§2) The location of the amino acid residue which was mutated from glycine to alanine is indicated by the first asterisk. The location of the amino acid residue which was mutated from threonine to isoleucine is indicated by the second asterisk. The location of the third amino acid residue which was mutated from proline to serine is indicated by the third asterisk. These mutations were introduced into different versions of DGT-1, DGT-3, and DGT-7. The different versions of the genes which contain the mutations are described in more detail below.
(§3) Additional constructs containing the dgt-1, dgt-3 and dgt-7 were synthesized. These constructs were used for in vitro testing of the dgt-1 v5, dgt-1 v6, dgt-1 v7, dgt-1 v8, dgt-3 v6, dgt-3 v7, dgt-3 v8, dgt-7 v5, dgt-7 v6, dgt-7 v7, and dgt-7 v8 gene sequences were outsourced to GeneArt for synthesis and cloning. The synthesized genes were cloned into the pET28 expression vector. The resulting constructions were labeled as pDAB102028 containing dgt-1 v5, pDAB102029 containing dgt-1 v6, pDAB102032 containing dgt-1 v7, pDAB102034 containing dgt-1 v8, pDAB100429 containing dgt-3 v6, pDAB100442 containing dgt-3 v7, pDAB100430 containing dgt-3 v8, pDAB102036 containing dgt-7 v5, pDAB102038 containing dgt-7 v6, pDAB102040 containing dgt-7 v7, and pDAB102042 containing dgt-7 v8.
(§4) Recombinant DGT proteins were overexpressed in Rosetta2™ (DE3) cells (Novagen, Madison, Wis.) from the constructs described above. A single colony was used to inoculate 50 mL starter cultures of LB containing chloramphenicol (25 μg/mL) and kanamycin (50 μg/mL) which were cultivated overnight at 37° C. The overnight cultures were used to inoculate 1 L of LB containing chloramphenicol (25 μg/mL) and kanamycin (50 μg/mL). The cultures were grown at 37° C. to an O.D.600=0.6 then placed in an ice water bath for 10 minutes. Expression of the target proteins was achieved by addition of IPTG to a final concentration of 500 μM. Induction was allowed to proceed overnight at 20° C. followed by harvesting via centrifugation at 8,000 rpm for 20 minutes. The cell pellets were stored at −80° C. until required for purification. All purification steps were carried out at 4° C.
(§5) Cell pellets from 1 L cultures were resuspended in 20-30 mL Buffer A (50 mM HEPES pH 7.5, 150 mM KCl, 2 mM DTT, 1 mM EDTA, 20 mM imidazole, and 5% glycerol). COMPLETE™ protease inhibitor cocktail (1 tablet/50 mL, Roche, Indianapolis, Ind.) and lysozyme (1 mg/mL, Sigma-Aldrich, St. Louis, Mo.) were then added and the suspension was stirred for 20 minutes. Cell lysis was performed using a Branson Sonifier 250 (3×60 second bursts) followed by removal of the cell debris by centrifugation at 16,000 rpm for 45 minutes. DGT enzymes were purified to homogeneity in one step via immobilized metal affinity chromatography (IMAC) using a 5 mL HisTrap FF crude column. The column was equilibrated in Buffer A and the sample was loaded in the same buffer. The column was then washed with 10 column volumes of Buffer A followed by elution in a 0-100% Buffer B (50 mM HEPES pH 7.5, 200 mM KCl, 2 mM DTT, 1 mM EDTA, 500 mM imidazole, and 5% glycerol) linear gradient over 25 column volumes. […]

In experiment [2] the target is T2, Triticum aestivum (wheat) EPSP synthase DGT-7 variant DGT-7 v6 (G→A) (Triticum aestivum, UniProt B5M6A1, G167A).
T2 sequence (B5M6A1 with tags, fused parts or gaps G167A): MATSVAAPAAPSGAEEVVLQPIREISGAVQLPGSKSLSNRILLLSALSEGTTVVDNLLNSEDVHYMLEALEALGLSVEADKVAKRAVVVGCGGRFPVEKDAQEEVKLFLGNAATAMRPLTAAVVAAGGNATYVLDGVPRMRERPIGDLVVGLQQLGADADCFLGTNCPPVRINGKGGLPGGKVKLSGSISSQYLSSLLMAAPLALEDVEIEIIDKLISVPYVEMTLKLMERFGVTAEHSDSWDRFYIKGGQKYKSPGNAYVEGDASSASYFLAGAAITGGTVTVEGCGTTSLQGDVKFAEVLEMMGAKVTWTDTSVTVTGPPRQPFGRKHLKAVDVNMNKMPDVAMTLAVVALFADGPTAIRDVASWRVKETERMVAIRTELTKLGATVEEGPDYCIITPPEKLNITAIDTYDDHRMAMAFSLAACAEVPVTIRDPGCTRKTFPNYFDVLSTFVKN
Described as above. In kind it is biochemical. The conditions noted are these: for pIC50: IC50 (glyphosate).
Text: as §1, §2, §3, §4, §5

Turning to `C=C(OP(=O)(O)O)C(=O)O` [PEP, phosphoenolpyruvate], the “increase of Km for PEP” value in experiment [1] (G to A mutation vs un-mutated) and in experiment [2] (G to A mutation vs un-mutated) was about 8 fold throughout.
Broadly, the pIC50 is the IC50 on a negative log10 scale, so that one unit is a factor of ten. Read a low pIC50 as a high IC50. For the molecule `O=C(O)CNCP(=O)(O)O` [glyphosate, N-(phosphonomethyl)glycine], the negative logarithm of the IC50 (pIC50) in experiment [1] (at 60 μM PEP) was 1.76; in experiment [1] (at 1 mM PEP) it was 1.68; in experiment [2] (at 60 μM PEP) it was 1.82; in experiment [2] (at 1 mM PEP) it was 2.09.
